According to patent US20100137449A1, “SUBSTITUTED 1,3-CYCLOPENTADIONE MULTI-TARGET PROTEIN KINASE MODULATORS OF CANCER, ANGIOGENESIS AND THE INFLAMMATORY PATHWAYS ASSOCIATED THEREWITH” (METAPROTEOMICS, LLC, priority 2007, published 2010):

Assays:
Assay in all cases: KinaseProfiler Assay
Aurora-A(h) = target: T1, Aurora-A(h) (Homo sapiens, UniProt O14965)
T1 sequence (O14965 1-403): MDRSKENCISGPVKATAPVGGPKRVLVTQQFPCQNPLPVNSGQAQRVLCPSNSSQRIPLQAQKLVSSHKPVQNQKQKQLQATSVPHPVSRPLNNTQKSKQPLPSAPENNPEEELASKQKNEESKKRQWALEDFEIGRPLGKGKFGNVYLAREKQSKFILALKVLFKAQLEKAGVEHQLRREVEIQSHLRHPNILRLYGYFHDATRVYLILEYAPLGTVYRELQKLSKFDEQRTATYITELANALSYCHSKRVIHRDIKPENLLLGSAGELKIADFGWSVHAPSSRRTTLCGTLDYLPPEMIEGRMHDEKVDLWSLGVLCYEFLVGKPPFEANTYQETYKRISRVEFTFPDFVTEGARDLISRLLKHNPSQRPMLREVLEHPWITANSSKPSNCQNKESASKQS

GRK7(h) = target: T2, GRK7(h) (Homo sapiens, UniProt Q8WTQ7)
T2 sequence (Q8WTQ7 1-553): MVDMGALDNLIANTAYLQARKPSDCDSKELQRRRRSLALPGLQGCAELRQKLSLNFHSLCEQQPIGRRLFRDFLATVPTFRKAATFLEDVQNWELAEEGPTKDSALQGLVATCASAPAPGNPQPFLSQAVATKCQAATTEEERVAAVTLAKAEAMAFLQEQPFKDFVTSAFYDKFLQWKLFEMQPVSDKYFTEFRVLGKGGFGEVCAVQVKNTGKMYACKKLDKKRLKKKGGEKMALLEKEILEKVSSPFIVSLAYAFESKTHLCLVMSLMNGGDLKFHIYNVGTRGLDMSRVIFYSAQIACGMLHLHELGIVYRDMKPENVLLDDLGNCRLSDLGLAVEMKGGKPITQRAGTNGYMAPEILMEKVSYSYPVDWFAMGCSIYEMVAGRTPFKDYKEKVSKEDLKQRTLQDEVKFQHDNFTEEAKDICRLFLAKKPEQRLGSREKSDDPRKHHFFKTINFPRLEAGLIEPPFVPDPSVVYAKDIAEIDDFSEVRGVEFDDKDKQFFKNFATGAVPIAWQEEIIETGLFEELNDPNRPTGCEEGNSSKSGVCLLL

IKKβ(h) = target: T3, IKKβ(h) (Homo sapiens, UniProt O14920)
T3 sequence (O14920 1-756): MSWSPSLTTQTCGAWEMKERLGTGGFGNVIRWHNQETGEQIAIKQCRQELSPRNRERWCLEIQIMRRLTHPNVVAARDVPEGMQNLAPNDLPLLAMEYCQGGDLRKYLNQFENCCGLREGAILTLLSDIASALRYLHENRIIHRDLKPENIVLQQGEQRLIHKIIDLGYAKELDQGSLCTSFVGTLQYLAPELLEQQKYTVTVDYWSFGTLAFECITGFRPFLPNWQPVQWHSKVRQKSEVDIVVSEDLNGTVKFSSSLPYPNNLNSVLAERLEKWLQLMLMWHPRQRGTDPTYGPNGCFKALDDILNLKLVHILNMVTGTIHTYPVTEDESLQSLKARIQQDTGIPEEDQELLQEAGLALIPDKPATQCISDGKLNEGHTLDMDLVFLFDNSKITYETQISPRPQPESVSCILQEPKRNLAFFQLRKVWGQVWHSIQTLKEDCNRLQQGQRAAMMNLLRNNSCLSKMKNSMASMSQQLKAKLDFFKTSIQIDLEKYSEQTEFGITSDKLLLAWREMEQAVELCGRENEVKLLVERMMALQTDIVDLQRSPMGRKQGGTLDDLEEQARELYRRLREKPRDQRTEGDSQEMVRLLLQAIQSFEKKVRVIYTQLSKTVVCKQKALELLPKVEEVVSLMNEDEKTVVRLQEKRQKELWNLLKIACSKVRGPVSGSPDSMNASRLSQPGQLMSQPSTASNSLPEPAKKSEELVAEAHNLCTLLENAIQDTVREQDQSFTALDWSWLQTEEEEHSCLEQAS

Txk(h) = target: T4, Txk(h) (Homo sapiens, UniProt P42681)
T4 sequence (P42681 1-527): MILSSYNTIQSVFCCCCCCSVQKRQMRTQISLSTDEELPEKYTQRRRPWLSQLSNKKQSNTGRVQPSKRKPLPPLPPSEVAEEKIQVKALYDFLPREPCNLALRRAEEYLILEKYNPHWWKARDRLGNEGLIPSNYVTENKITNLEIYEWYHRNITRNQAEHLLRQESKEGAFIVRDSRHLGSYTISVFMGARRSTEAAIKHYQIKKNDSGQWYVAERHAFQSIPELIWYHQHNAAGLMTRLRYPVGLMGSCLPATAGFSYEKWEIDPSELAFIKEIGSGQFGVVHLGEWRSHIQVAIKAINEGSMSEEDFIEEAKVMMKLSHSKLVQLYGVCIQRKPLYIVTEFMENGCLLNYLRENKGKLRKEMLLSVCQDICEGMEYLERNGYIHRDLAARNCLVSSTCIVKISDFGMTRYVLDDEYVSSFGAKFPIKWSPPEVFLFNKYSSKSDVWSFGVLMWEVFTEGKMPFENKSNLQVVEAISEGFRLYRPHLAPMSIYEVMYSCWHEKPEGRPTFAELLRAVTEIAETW

Compound: CC(C)CCC(=O)[C@]1(O)C(O)=C(C(=O)C(C)C)C(=O)[C@H]1CCC(C)C [TH2, tetrahydroiso-cohumulone]
- kinase inhibition (Aurora-A(h); 1 μg/ml): 65% of control
- kinase inhibition (Aurora-A(h); 5 μg/ml): 24% of control
- kinase inhibition (Aurora-A(h); 25 μg/ml): 71% of control
- kinase inhibition (Aurora-A(h); 50 μg/ml): 57% of control
- kinase inhibition (Aurora-A(h); 100 μg/ml): 54% of control
- kinase inhibition (GRK7(h); 1 μg/ml): 110% of control
- kinase inhibition (GRK7(h); 5 μg/ml): 95% of control
- kinase inhibition (GRK7(h); 25 μg/ml): 102% of control
- kinase inhibition (GRK7(h); 50 μg/ml): 91% of control
- kinase inhibition (GRK7(h); 100 μg/ml): 99% of control
- kinase inhibition (IKKβ(h); 1 μg/ml): 111% of control
- kinase inhibition (IKKβ(h); 5 μg/ml): 107% of control
- kinase inhibition (IKKβ(h); 25 μg/ml): 94% of control
- kinase inhibition (IKKβ(h); 50 μg/ml): 77% of control
- kinase inhibition (IKKβ(h); 100 μg/ml): 76% of control
- kinase inhibition (Txk(h); 1 μg/ml): 114% of control
- kinase inhibition (Txk(h); 5 μg/ml): 121% of control
- kinase inhibition (Txk(h); 25 μg/ml): 121% of control
- kinase inhibition (Txk(h); 50 μg/ml): 110% of control
- kinase inhibition (Txk(h); 100 μg/ml): 107% of control
